Assay results published in patent US6887873B2, “Triazine derivatives and their application as antitelomerase agents” (Aventis Pharma S.A., priority 2001, dated 2005).
“And” between values parts separate entries of the source, which are not always exact repeats. Equal values may be shown once.

Key:
[1] = test system: G-quadruplex of oligonucleotide GGGTTAGGGTTAGGGTTAGGG (3.5 repeats of the human telomereic motif); test: G-quadruplex stabilizing activity, fluorescence Tm (FAM+DABCYL oligonucleotide); type: binding
Source text: The G-quadruplex stabilizing activity may be determined by a method using the formation of a complex with fluorescein of which the experimental protocol is described below.
All the nucleotides, modified or otherwise, were synthesized by Eurogentec SA, Seraing, Belgium. The oligonucleotide FAM+DABCYL carries the catalogue reference OL-0371-0802. It has the sequence: […] corresponding to 3.5 repeats of the human telomereic motif (strand rich in G). The fluorescein is attached to the 5′ end, the DABCYL to the 3′ end, by the chemical arms described by Eurogentec. The concentration of the samples is checked by spectrophotometry, recording the absorbance spectrum between 220 and 700 nm and using the molar extinction coefficient provided by the supplier.
All the experiments were carried out in a 10 mM sodium cacodylate buffer pH 7.6 containing 0.1 M lithium chloride (or sodium chloride). The absence of fluorescent contamination in the buffer was checked beforehand. The fluorescent oligonucleotide is added at the final concentration of 0.2 μM.
All the measurements of fluorescence were carried out on a Spex Fluorolog DM1B apparatus, using an excitation line width of 1.8 nm and an emission line width of 4.5 nm. The samples are placed in a microquartz cuvette of 0.2×1 cm. The temperature of the sample is controlled by an external water bath. The oligonucleotide alone was analysed at 20, 30, 40, 50, 60, 70 and 80° C. The emission spectra are recorded using an excitation wavelength of 470 nm. The excitation spectra are recorded using either 515 nm or 588 nm as emission wavelength. The spectra are corrected for the response of the instrument by reference curves. A high extinction (80-90%) of the fluorescence of fluorescein at room temperature is observed, in agreement with an intramolecular folding of the oligonucleotide at 20° C. in the form of a G-quadruplex, which induces juxtaposition of its 5′ and 3′ ends which are respectively linked to fluorescein and to DABCYL. This juxtaposition causes an already-described phenomenon of extinction of fluorescence which is used for “molecular beacons”.
An oligonucleotide stock solution at the strand concentration of 0.2 μM in 0.1 M LiCl, 10 mM cacodylate buffer, pH 7.6, is prepared beforehand, heated briefly at 90° C. and slowly cooled to 20° C., and then distributed in aliquots of 600 μl in the fluorescence cuvettes. 3 μl of water (for the control) or 3 μl of test product (stock at 200 μM, final concentration 1 μM) are then added and mixed. The samples are then allowed to incubate for at least 1 hour at 20° C. before each measurement. The use of longer incubation times (up to 24 hours) has no influence on the result obtained.
Each experiment allows the measurement of only one sample. The latter is first incubated at an initial temperature of 20° C., heated to 80° C. over 38 minutes, left for 5 minutes at 80° C. and then cooled to 20° C. over 62 minutes. During this time, the fluorescence is measured simultaneously at two emission wavelengths (515 nm and 588 nm) using 470 nm as excitation wavelength. A measurement is carried out every 30 seconds. The temperature of the water bath is recorded in parallel, and the fluorescence profile as a function of the temperature is reconstituted from these values. The fluorescence profiles are then normalized between 20° C. and 80° C., and the temperature for which the intensity of emission at 515 nm is the mean of those at high and low temperature is called Tm. Under these conditions, the Tm of the reference sample without addition of product is 44° C. in a lithium chloride buffer. This temperature is increased to more than 55° C. in a sodium chloride buffer. The addition of a G-quadruplex-stabilizing compound induces an increase in the Tm. This increase is judged to be significant if it is greater than 3°.

[2] = test system: human telomerease (HL60 cell extract); test: Antitelomerease activity: extension of oligonucleotide TS followed by PCR amplification, with HL60 extract; type: biochemical; conditions: read-out: TRAP IC50
Method: The antitelomerease biological activity is determined by the following experimental protocol:
The leukaemia line HL60 is obtained from ATCC (American Type Culture Collection, Rockville, USA). The cells are cultured in suspension in RPMI 1640 medium containing L-glutamine at 2 mM, penicillin 200 U/ml, streptomycin 200 μg/ml, gentamycin 50 μg/ml and supplemented with 10% heat-inactivated foetal calf serum.
An aliquot of 10^5 cells is centrifuged at 3000×G and the supernatant discarded. The cell pellet is resuspended by several successive pipettings in 200 μl of lysis buffer containing 0.5% CHAPS, 10 mM Tris-HCl, pH 7.5, 1 mM MgCl2, 1 mM EGTA, 5 mM β-mercaptoethanol, 0.1 mM PMSF and 10% glycerol and is stored in ice for 30 minutes. The lysate is centrifuged at 160,000×G for 20 minutes at 4° C. and 160 μl of supernatant are recovered. The proteins in the extract are assayed by the Bradford method. The extract is stored at −80° C.
The inhibition of the telomerease activity is determined by a protocol for extension of the oligonucleotide TS (^5′AATCGTTCGAGCAGAGTT^3′), in the presence of a cellular extract enriched in telomerease activity and compounds which are added at various concentrations (10, 1, 0.1 and 0.01 μM). The extension reaction is followed by a PCR amplification of the extension products with the aid of the oligonucleotides TS and CXext (^5′[…]^3′).
The reaction medium is prepared based on the following composition:
The oligonucleotides are obtained from Eurogentec (Belgium) and are stored at −20° C. at a stock concentration of 1 mg/ml in distilled water.
The reaction samples are assembled in 0.2 ml PCR tubes and one drop of paraffin oil is deposited on each of the reactions of the experiment before closing the tubes.
The reaction samples are then incubated in a Cetus 4800-type PCR apparatus under the following temperature conditions: • 15 minutes at 30° C., • 1 minute at 90° C., • followed by 30 cycles of, • 30 seconds at 94° C., • 30 seconds at 50° C., • and 1 minute 30 seconds at 72° C., • followed by a final cycle of 2 minutes at 72° C.
For each of the samples, an aliquot of 10 μl is pipetted under the oil layer and mixed with 5 μl of a loading buffer containing:
The samples are then analysed by electrophoresis on 12% acrylamide gel in a 1×TBE buffer for 1 hour at a voltage of 200 volts, with the aid of a Novex electrophoresis system.
The acrylamide gels are then dried on a sheet of Whatmann 3 mm paper at 80° C. for 1 hour.
The analysis and the quantification of the reaction products are carried out with the aid of an InstantImager apparatus (Pacard).
For each compound concentration tested, the results are expressed as percentage inhibition of the reaction and calculated from the untreated enzymatic control and from the enzyme-free sample (blank) according to the following formula: (compound value−blank value/enzymatic control value−blank value)×100.
The concentration of compound inducing a 50% inhibition of the telomerease reaction (IC50) is determined with the aid of a semilogarithmic graphical representation of the inhibition values obtained as a function of each of the compound concentrations tested.
A compound is considered to be active as an antitelomerease agent when the quantity inhibiting 50% of the telomerease reaction is in particular less than 5 μM.

SMILES	G4 delta Tm [1] [°C]	IC50 [2]
Cc1cc(N)c2cc(Nc3nc(Nc4ccncc4)nc(Nc4ccccc4Cl)n3)ccc2n1 [Example 4]	5.5	3000 nM
Cc1cc(N)c2cc(Nc3nc(NCCN(C)C)nc(Nc4ccccc4Cl)n3)ccc2n1 [Example 5]	2.0	2700 nM
Cc1cc(N)c2cc(Nc3nc(NCCCN(C)C)nc(Nc4ccccc4Cl)n3)ccc2n1 [Example 6]		3500 nM
Cc1cc(N)c2cc(Nc3nc(Nc4ccccc4Cl)nc(NC4CCN(C)CC4)n3)ccc2n1 [Example 7]	3.0	2400 nM
Cc1cc(N)c2cc(Nc3nc(Nc4ccccc4Cl)nc(N4CCN(C)CC4)n3)ccc2n1 [Example 8]	1.5	3200 nM
Cc1cc(N)c2cc(Nc3nc(NCCCN(C)C)nc(Nc4ccc5nc(C)cc(N(C)C)c5c4)n3)ccc2n1 [Example 9]	10.0	100 nM
Cc1cc(N)c2cc(Nc3nc(Nc4ccncc4)nc(Nc4ccc5nc(C)cc(N)c5c4)n3)ccc2n1 [Example 10]	8.9	360 nM
Cc1cc(N)c2cc(Nc3nc(Nc4ccc5nc(C)cc(N)c5c4)nc(Nc4ccc5nc(C)cc(N(C)C)c5c4)n3)ccc2n1 [Example 11, 2,4-bis(4-amino-2-methylquinolin-6-yl)amino-6-(4-dimethylamino-2-methylquinolin-6-yl)amino-[1,3,5]triazine]	11.4	160 nM
Cc1cc(N)c2cc(Nc3nc(NCCCN(C)C)nc(Nc4ccc5nc(C)cc(N)c5c4)n3)ccc2n1 [Example 12]	9.4	300 nM
Cc1cc(N)c2cc(Nc3nc(Nc4ccc5nc(C)cc(N)c5c4)nc(NC4CCN(C)CC4)n3)ccc2n1 [Example 13]	7.2	260 nM
Cc1cc(N)c2cc(Nc3nc(Nc4ccc5nc(C)cc(N)c5c4)nc(N4CCN(C)CC4)n3)ccc2n1 [Example 14]	4.4	210 nM
Cc1cc(N)c2cc(Nc3nc(NCC4CCCN4)nc(Nc4ccc5nc(C)cc(N)c5c4)n3)ccc2n1 (stereo not shown) [Example 16]	7.3	80 nM
Cc1cc(N(C)C)c2cc(Nc3nc(NCC4CCCN4)nc(Nc4ccc5nc(C)cc(N(C)C)c5c4)n3)ccc2n1 (stereo not shown) [Example 22]	2.7	340 nM
Cc1cc(N(C)C)c2cc(Nc3nc(Nc4ccc5nc(C)cc(N(C)C)c5c4)nc(N4CCCC4)n3)ccc2n1 [Example 23]	9.2	3000 nM
Cc1cc(N)c2cc(Nc3nc(Nc4ccc5nc(C)cc(N)c5c4)nc(Oc4ccccc4)n3)ccc2n1 [Example 29, 2,4-bis(4-amino-2-methylquinolin-6-yl)amino-6-phenoxy-[1,3,5]triazine]		320 nM and 470 nM
Cc1cc(N)c2cc(Nc3nc(Nc4ccc5nc(C)cc(N)c5c4)nc(Nc4cccc5nn[nH]c45)n3)ccc2n1 [Example 61]		360 nM
Cc1cc(N)c2cc(Nc3nc(NCc4cccc5ccccc45)nc(Nc4ccc5nc(C)cc(N)c5c4)n3)ccc2n1 [Example 78]		1500 nM

SMILES	G4 delta Tm [1] [°C]	IC50 [2]
Cc1cc(N)c2cc(Nc3nc(Nc4ccc5ccccc5c4)nc(Nc4ccc5nc(C)cc(N)c5c4)n3)ccc2n1 [Example 79]		3600 nM
Cc1cc(N)c2cc(Nc3nc(NCCN4CCOCC4)nc(Nc4ccc5nc(C)cc(N)c5c4)n3)ccc2n1 [Example 80]		1200 nM
Cc1cc(N)c2cc(Nc3nc(NCc4cccc5cnccc45)nc(Nc4ccc5nc(C)cc(N)c5c4)n3)ccc2n1 [Example 81]		1400 nM
COc1cccc(Nc2nc(Nc3ccc4nc(C)cc(N)c4c3)nc(Nc3ccc4nc(C)cc(N)c4c3)n2)c1 [Example 82]		1600 nM
COCCNc1nc(Nc2ccc3nc(C)cc(N)c3c2)nc(Nc2ccc3nc(C)cc(N)c3c2)n1 [Example 84]		2200 nM
Cc1cc(N)c2cc(Nc3nc(Nc4ccc5nc(C)cc(N)c5c4)nc(Nc4nccc5ccccc45)n3)ccc2n1 [Example 87]		1500 nM
Cc1cc(N)c2cc(Nc3nc(Nc4ccc5nc(C)cc(N)c5c4)nc(Nc4ncccn4)n3)ccc2n1 [Example 94]		940 nM
Cc1cc(N)c2cc(Nc3nc(Nc4ccc5nc(C)cc(N)c5c4)nc(Nc4cccc5ncccc45)n3)ccc2n1 [Example 95]		930 nM
Cc1cc(N)c2cc(Nc3nc(Nc4ccc5ncccc5c4)nc(Nc4ccc5nc(C)cc(N)c5c4)n3)ccc2n1 [Example 96]		480 nM
Cc1cc(N)c2cc(Nc3nc(Nc4ccc5nc(C)cc(N)c5c4)nc(Nc4cccc5cccnc45)n3)ccc2n1 [Example 97]		690 nM
Cc1cc(N)c2cc(Nc3nc(Nc4ccc5nc(C)cc(N)c5c4)nc(Nc4ccc5c6c(cccc46)CC5)n3)ccc2n1 [Example 99]		600 nM
Cc1cc(N)c2cc(Nc3nc(Nc4ccc5nc(C)cc(N)c5c4)nc(Nc4cc5ccccc5cn4)n3)ccc2n1 [Example 100]		450 nM
Cc1cc2c(Nc3nc(Nc4ccc5nc(C)cc(N)c5c4)nc(Nc4ccc5nc(C)cc(N)c5c4)n3)cccc2cn1 [Example 101]		810 nM
CCOc1cc(Nc2nc(Nc3ccc4nc(C)cc(N)c4c3)nc(Nc3ccc4nc(C)cc(N)c4c3)n2)c2ncccc2c1 [Example 102]		570 nM
Cc1cc(N)c2cc(Nc3nc(Nc4ccc5nc(C)cc(N)c5c4)nc(Sc4ccc5ccccc5c4)n3)ccc2n1 [Example 116]		1800 nM
Cc1cc(N)c2cc(Nc3nc(Nc4ccc5nc(C)cc(N)c5c4)nc(Sc4ncccn4)n3)ccc2n1 [Example 121]		400 nM and 360 nM
